# Assay results: ChEMBL document CHEMBL5653631, “A Potent and Selective ULK1 Inhibitor Suppresses Autophagy and Sensitizes Cancer Cells to Nutrient Stress” (iScience, 2018)
# Experiments:
# [1] = molecular target: MAP kinase-interacting serine/threonine-protein kinase 2 (Homo sapiens, UniProt Q9HBH9); test: Inhibition of human recombinant MNK2
# [2] = organism: Homo sapiens; test: Inhibition of human recombinant KHS1 at 40 nM related to control ULK1
# [3] = molecular target: Serine/threonine-protein kinase PRP4 homolog (Homo sapiens) (UniProt Q13523); test: Inhibition of human recombinant PRP4 at 500 nM in presence of ATP by radiometric assay relative to control
# Sequence of Serine/threonine-protein kinase PRP4 homolog (Homo sapiens) (Q13523 whole entry): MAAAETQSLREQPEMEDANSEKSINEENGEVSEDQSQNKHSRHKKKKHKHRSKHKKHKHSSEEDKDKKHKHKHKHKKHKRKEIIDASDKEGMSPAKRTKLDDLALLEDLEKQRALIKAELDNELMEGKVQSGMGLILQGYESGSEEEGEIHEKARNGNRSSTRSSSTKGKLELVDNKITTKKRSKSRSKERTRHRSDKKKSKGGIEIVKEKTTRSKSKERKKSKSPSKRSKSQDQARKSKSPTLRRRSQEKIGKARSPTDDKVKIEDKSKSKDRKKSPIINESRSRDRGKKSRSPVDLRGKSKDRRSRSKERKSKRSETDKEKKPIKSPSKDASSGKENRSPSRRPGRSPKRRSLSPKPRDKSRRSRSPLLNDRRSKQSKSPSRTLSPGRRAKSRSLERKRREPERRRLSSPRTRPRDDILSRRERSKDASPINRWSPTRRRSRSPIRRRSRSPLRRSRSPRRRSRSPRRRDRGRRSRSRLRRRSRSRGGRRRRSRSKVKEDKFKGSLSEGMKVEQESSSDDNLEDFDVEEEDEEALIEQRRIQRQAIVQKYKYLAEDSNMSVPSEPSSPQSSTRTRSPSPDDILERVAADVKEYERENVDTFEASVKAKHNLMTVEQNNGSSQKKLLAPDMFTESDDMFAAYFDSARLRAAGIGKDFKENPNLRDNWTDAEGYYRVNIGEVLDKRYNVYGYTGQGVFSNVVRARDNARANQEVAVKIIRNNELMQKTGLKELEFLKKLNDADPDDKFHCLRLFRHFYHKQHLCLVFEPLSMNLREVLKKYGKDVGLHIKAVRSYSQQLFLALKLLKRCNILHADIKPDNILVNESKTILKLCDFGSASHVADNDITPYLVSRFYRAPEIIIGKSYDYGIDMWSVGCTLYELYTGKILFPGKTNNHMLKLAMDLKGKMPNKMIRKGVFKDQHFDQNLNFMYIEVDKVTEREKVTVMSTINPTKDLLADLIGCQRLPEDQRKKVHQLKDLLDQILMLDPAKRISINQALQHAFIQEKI
# [4] = molecular target: 3-phosphoinositide-dependent protein kinase 1 (Homo sapiens) (UniProt O15530); test: Inhibition of human recombinant PDK1 at 500 nM related to control ULK1
# Sequence of 3-phosphoinositide-dependent protein kinase 1 (Homo sapiens) (O15530 whole entry, looked up): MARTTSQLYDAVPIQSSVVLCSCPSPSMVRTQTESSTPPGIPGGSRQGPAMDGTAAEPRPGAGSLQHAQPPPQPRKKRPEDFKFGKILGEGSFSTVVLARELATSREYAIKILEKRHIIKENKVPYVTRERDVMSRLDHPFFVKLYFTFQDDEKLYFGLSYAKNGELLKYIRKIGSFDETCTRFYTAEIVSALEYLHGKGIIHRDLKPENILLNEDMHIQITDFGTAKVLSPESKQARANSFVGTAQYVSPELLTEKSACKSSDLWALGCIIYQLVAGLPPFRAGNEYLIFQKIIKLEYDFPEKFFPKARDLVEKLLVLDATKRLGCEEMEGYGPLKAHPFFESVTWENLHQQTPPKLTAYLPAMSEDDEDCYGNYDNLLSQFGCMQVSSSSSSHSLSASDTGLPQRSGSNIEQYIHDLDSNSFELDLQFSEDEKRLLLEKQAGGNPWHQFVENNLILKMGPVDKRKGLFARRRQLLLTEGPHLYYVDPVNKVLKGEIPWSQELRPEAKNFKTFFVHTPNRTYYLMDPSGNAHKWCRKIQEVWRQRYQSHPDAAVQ
# [5] = molecular target: T1, Serine/threonine-protein kinase tousled-like 1 (Homo sapiens) (UniProt Q9UKI8); test: Inhibition of human recombinant TLK1 at 500 nM in presence of ATP by radiometric assay relative to control
# T1 sequence (whole entry): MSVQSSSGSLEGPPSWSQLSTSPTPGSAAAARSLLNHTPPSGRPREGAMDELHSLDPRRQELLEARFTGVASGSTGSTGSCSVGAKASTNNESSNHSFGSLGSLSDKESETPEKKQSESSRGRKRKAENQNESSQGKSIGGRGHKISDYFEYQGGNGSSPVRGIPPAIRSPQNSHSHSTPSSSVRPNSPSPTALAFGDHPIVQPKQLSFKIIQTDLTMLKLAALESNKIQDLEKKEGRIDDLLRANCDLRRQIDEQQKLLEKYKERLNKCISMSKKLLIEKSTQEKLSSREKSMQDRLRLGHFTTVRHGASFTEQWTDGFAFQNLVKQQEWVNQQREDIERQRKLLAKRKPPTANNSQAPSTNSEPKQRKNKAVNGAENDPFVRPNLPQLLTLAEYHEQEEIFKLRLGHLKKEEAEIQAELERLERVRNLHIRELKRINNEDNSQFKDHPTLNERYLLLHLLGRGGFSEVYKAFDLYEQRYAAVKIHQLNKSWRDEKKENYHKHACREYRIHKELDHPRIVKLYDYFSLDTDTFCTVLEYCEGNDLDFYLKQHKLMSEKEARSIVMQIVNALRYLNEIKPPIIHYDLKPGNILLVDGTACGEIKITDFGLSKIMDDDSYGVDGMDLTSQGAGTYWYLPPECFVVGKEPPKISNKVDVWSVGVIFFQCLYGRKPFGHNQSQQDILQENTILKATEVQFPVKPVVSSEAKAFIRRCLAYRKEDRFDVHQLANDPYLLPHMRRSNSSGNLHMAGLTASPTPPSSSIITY
# [6] = molecular target: Serine/threonine-protein kinase Nek7 (Homo sapiens) (UniProt Q8TDX7); test: Inhibition of human recombinant NEK7 at 500 nM related to control ULK1
# Sequence of Serine/threonine-protein kinase Nek7 (Homo sapiens) (Q8TDX7 whole entry, looked up): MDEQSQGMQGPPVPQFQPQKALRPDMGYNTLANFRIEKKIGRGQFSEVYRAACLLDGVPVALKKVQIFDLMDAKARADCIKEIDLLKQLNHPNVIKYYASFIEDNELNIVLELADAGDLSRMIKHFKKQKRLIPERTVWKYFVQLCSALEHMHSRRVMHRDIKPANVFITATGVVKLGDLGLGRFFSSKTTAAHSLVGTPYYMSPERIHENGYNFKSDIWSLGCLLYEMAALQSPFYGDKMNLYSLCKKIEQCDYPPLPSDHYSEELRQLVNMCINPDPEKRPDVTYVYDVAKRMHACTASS
# [7] = molecular target: T2, Serine/threonine-protein kinase 17B (Homo sapiens) (UniProt O94768); test: Inhibition of human recombinant DRAK2 at 500 nM in presence of ATP by radiometric assay relative to control
# T2 sequence (whole entry): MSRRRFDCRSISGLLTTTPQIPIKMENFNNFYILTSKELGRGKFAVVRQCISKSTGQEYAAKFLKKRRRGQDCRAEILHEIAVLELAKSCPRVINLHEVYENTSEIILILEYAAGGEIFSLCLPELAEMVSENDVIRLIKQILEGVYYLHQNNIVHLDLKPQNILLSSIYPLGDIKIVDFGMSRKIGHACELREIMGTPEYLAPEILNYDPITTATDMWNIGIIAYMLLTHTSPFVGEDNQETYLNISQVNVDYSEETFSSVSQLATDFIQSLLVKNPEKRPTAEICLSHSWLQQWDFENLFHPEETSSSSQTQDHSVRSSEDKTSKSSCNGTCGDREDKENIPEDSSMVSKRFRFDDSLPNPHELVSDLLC
# [8] = molecular target: Serine/threonine-protein kinase SIK1 (Homo sapiens) (UniProt P57059); test: Inhibition of human recombinant SIK at 15 nM related to control ULK1
# Sequence of Serine/threonine-protein kinase SIK1 (Homo sapiens) (P57059 whole entry): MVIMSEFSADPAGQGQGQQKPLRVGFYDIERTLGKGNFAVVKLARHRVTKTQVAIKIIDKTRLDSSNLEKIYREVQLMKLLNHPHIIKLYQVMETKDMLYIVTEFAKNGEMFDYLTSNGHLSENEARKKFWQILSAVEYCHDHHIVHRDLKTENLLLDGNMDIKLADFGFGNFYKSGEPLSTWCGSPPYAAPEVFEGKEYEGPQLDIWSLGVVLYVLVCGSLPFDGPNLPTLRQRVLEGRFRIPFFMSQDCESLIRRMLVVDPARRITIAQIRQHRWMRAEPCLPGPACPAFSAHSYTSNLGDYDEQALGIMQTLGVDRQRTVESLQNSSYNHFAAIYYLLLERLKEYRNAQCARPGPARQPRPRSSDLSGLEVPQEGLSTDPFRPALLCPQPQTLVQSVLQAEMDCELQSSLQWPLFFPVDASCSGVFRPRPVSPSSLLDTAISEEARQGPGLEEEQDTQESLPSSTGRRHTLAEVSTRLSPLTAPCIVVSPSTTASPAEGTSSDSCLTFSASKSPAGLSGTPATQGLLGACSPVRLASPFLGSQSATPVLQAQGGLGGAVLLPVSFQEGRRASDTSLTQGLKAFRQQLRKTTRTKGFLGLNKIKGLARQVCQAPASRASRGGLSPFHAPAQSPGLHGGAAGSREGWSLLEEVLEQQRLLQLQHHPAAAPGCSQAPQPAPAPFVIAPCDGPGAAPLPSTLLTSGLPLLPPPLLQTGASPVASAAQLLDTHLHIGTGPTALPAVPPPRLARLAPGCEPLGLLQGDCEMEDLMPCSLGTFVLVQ
# [9] = molecular target: Calcium/calmodulin-dependent protein kinase type II subunit alpha (Homo sapiens) (UniProt Q9UQM7); test: Inhibition of human recombinant CaMK2a at 15 nM related to control ULK1
# Sequence of Calcium/calmodulin-dependent protein kinase type II subunit alpha (Homo sapiens) (Q9UQM7 whole entry): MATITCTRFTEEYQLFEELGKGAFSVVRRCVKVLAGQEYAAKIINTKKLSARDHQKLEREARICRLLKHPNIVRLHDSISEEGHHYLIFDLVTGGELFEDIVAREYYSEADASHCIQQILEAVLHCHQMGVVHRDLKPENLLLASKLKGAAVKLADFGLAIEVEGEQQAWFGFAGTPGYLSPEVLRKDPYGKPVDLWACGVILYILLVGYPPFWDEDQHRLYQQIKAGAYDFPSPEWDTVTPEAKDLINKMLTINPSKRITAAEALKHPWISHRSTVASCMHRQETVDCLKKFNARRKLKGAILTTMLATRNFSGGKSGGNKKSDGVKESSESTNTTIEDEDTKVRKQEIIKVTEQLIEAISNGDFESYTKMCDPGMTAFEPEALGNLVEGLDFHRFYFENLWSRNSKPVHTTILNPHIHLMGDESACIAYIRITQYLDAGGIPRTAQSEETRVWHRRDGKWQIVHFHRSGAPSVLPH
# [10] = molecular target: Ribosomal protein S6 kinase alpha-5 (Homo sapiens) (UniProt O75582); test: Inhibition of human recombinant MSK1 at 15 nM related to control ULK1
# [11] = molecular target: T3, Receptor-interacting serine/threonine-protein kinase 1 (Homo sapiens) (UniProt Q13546); test: Inhibition of human recombinant RIPK1 at 15 nM in presence of ATP by radiometric assay relative to control
# T3 sequence (whole entry): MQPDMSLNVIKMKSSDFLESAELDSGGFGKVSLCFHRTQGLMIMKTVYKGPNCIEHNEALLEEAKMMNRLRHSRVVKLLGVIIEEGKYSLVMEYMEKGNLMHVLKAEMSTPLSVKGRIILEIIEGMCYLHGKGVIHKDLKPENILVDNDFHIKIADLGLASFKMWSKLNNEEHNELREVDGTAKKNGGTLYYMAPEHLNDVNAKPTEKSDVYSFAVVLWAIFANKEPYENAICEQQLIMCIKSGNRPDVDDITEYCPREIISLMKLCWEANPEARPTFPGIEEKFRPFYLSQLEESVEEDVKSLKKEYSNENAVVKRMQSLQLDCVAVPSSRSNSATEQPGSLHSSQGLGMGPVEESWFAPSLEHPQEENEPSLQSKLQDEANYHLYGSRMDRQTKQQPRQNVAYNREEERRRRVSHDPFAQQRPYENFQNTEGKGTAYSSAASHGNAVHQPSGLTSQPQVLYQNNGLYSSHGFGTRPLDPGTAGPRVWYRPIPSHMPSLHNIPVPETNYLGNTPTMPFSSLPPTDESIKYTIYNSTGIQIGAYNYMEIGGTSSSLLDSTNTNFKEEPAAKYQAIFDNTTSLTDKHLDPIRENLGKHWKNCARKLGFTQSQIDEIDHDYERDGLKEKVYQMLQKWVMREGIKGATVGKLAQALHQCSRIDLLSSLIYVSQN
# [12] = molecular target: Vascular endothelial growth factor receptor 1 (Homo sapiens) (UniProt P17948); test: Inhibition of human recombinant FLT1 at 15 nM in presence of ATP by radiometric assay relative to control
# Sequence of Vascular endothelial growth factor receptor 1 (Homo sapiens) (P17948 whole entry): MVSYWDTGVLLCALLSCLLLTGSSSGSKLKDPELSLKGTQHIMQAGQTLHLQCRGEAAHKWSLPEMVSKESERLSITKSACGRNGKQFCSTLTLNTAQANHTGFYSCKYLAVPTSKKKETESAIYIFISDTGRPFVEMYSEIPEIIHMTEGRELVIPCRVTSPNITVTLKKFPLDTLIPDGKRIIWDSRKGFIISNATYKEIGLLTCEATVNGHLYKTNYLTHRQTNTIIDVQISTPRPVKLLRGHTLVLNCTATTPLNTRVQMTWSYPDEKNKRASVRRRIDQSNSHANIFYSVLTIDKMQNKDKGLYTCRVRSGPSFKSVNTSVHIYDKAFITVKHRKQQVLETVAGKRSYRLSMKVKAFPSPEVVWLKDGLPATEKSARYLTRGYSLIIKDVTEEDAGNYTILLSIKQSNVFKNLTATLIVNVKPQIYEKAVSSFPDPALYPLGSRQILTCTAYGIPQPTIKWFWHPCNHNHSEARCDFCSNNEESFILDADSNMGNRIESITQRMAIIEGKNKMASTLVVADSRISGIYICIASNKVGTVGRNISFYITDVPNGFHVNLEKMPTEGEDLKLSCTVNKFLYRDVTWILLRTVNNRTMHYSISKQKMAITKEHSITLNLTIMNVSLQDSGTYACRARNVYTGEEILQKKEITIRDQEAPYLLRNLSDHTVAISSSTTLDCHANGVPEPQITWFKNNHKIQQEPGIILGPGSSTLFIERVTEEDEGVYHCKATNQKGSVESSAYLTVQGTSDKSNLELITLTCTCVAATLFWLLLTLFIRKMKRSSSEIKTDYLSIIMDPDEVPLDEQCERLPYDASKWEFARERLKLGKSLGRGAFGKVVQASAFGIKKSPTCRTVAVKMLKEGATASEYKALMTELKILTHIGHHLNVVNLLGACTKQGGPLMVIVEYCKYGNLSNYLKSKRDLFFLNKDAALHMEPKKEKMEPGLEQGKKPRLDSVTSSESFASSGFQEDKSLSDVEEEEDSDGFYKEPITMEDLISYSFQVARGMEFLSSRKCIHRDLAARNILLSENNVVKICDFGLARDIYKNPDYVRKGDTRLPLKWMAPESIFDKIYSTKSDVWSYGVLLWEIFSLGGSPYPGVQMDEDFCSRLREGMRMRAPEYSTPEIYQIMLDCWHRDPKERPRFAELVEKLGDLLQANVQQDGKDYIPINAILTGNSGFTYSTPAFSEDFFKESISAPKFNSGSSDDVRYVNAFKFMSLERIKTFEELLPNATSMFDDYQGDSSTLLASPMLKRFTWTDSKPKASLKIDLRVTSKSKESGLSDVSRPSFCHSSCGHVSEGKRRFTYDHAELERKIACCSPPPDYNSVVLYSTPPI
# Sequence of MAP kinase-interacting serine/threonine-protein kinase 2 (Q9HBH9 whole entry): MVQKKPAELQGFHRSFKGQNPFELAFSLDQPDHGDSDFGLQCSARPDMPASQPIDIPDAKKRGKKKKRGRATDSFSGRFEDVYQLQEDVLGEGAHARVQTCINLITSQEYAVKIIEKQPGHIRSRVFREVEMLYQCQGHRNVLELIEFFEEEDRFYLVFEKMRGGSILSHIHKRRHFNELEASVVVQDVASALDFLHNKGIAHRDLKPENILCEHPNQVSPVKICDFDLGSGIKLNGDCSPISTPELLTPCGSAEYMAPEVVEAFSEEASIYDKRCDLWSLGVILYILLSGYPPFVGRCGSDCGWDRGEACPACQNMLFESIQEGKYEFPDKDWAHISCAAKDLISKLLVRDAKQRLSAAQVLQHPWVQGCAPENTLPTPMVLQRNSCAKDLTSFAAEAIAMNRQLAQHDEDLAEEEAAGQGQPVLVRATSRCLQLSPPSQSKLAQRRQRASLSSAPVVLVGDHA
smiles,measurement,setting,value
O=C(N[C@@H](C1CC1)C(F)(F)F)c1cc(-c2cnn3cc(-c4ccc(F)cc4)cnc23)cs1,IC50,[1],22 nM
same,fold change (FC),[2],0
CNC(=O)c1ccccc1Oc1nc(Nc2cc(OC)c(OC)c(OC)c2)ncc1Br,inhibition,[3],2%
same,fold change (FC),[4],0.05
same,inhibition,[5],0%
same,fold change (FC),[6],0
same,inhibition,[7],6%
CC(C)[C@H](NC(=O)c1cc(-c2cnn3cc(-c4ccc(OCCN5CCCCC5)cc4)cnc23)cs1)C(F)(F)F,fold change (FC),[8],0.84
same,fold change (FC),[9],0.47
same,fold change (FC),[10],0.02
same,inhibition,[11],1%
same,inhibition,[12],9%
